Reference: PubChem BioAssay AID2060493 (Molecular Pharmacology Branch, DTP, NCI, 2025)

Tested on: 616215-338-R-J1-PDC tumor spheroids, viability
Assay: Anticancer human tumor 616215-338-R-J1-PDC patient-derived colon adenocarcinoma cell line growth inhibition [GQUAD]
Details: spheroids with HUVEC and MSC; for IC50: curve of first compound; for viability, T/C: stronger effect = lower value
Source text: DNA G-quadruplex Stabilizer Agents in Combinations in Complex Spheroids
A high-throughput screen of multi-cell type tumor spheroids was designed to identify active combinations of DNA G-quadruplex stabilizer agents and targeted small molecules. Complex spheroids include a stromal component modeled by human endothelial cells (HUVEC) and fibroblasts modeled by human mesenchymal stem cells (MSCs). The concentration ranges selected for each drug and investigational agent were based upon clinically achievable concentrations if the clinical Cmax of the agent was known.
Compounds. The drugs and investigational agents: pidnarulex (CX-5461; NSC782164), APTO-253 (NSC789042), BRACO-19 (NSC847499), peposertib (NSC802822), ceralasertib (NSC780249), elimusertib (NSC800525), camonsertib (NSC841442), AZD-1390 (NSC803789), olaparib (NSC753686), talazoparib (NSC767125), ART-558 (NSC835418), sotorasib (NSC818433), MRTX-1133 (NSC836407), SN-38 (NSC673596), topotecan (NSC609699), etoposide (NSC141540), doxorubicin (NSC123127), gemcitabine (NSC613327), 5-fluorouracil (NSC19893), paclitaxel (NSC125973), vemurafenib (NSC761431), panobinostat (NSC761190), R-306465 (JNJ-16241199; NSC773264), adavosertib (NSC754352), TP-3654 (NSC805149), carboplatin (NSC241240), KSQ-4279 (NSC840948), and staurosporine (NSC755774) were obtained from the National Cancer Institute (NCI) Developmental Therapeutics Program Chemical Repository (34). The FDA-approved anticancer drug set is available from the NCI Developmental Therapeutics Program. […] The stock solutions were prepared in dimethyl sulfoxide (DMSO, Sigma-Aldrich, St. Louis, MO, cat. D2650) at 800-fold the tested concentration and stored at -70 degrees C prior to their use. All drugs and investigational agents were tested over a range starting from a high concentration at or near the clinical Cmax and decreasing in half-log increments. If the clinical Cmax for an agent had not been determined, the highest concentration tested was 10 microM.
2.3 Cell Culture. All cells were maintained in an incubator at 37 degrees C and 5% CO2 with 95% humidity. The PDC lines were cultured according to standard operating procedures established by the NCI PDMR. All PDCs were thawed and cultured in Matrigel-coated flasks prepared with a working solution of 1X Ham's F-12 nutrient mix, without supplementation (Invitrogen, cat. 11765054), 100 U/mL penicillin-streptomycin (Invitrogen, cat. 15140122), and 2.5% Matrigel (Corning Inc., cat. 354248) for the first three passages. The 857933-349-R-J2-PDC line was cultured in 6C/Colon 1B media, which includes advanced DMEM/F-12 (Thermo Fisher Scientific, cat. 12634028), 10 mM HEPES (Thermo Fisher Scientific, cat. 15630080), 1X GlutaMAX supplement (Thermo Fisher Scientific, cat. 35050061), 0.1 mg/mL primocin (InvivoGen, cat. ant-pm-2), 10% defined fetal bovine serum, heat inactivated (HyClone Laboratories Inc., cat. SH30070.03HI), 50% L-WRN conditioned media (ATCC, cat. CRL-3276), 1.25 mM N-Acetyl-L-cysteine (Sigma-Aldrich, cat. A9165), 10 mM nicotinamide (Sigma-Aldrich, cat. N0636), 1X B-27 supplement (Thermo Fisher Scientific, cat. 17504044), 1X N-2 supplement (Thermo Fisher Scientific, cat. 17502048), 10 microM Y-27632 dihydrochloride (Tocris Bioscience, cat. 1254), and 50 ng/mL human EGF recombinant protein (Thermo Fisher Scientific, cat. PHG0311). The 485176-168-R4-J1-PDC line was cultured in Panc media, which includes all 6C/Colon 1B media components plus 100 ng/mL human FGF-10 (Thermo Fisher Scientific, cat. 100-26), 500 nM SB-431542 (Selleckchem, cat. S1067), and gastrin (Tocris, cat. 3006).
[…]

[1] = second compound 0.0316 µM, first compound 0.0316 µM
[2] = second compound 0.0316 µM, first compound 0.1 µM
[3] = second compound 0.0316 µM, first compound 0.316 µM
[4] = second compound 0.0316 µM, first compound 1 µM
[5] = second compound 0.0316 µM, first compound 3.16 µM
[6] = second compound 0.0316 µM, first compound 10 µM
[7] = second compound 0.1 µM, first compound 0.0316 µM
[8] = second compound 0.1 µM, first compound 0.1 µM
[9] = second compound 0.1 µM, first compound 0.316 µM
[10] = second compound 0.1 µM, first compound 1 µM
[11] = second compound 0.1 µM, first compound 3.16 µM
[12] = second compound 0.1 µM, first compound 10 µM
[13] = second compound 0.316 µM, first compound 0.0316 µM
[14] = second compound 0.316 µM, first compound 0.1 µM
[15] = second compound 0.316 µM, first compound 0.316 µM
[16] = second compound 0.316 µM, first compound 1 µM
[17] = second compound 0.316 µM, first compound 3.16 µM
[18] = second compound 0.316 µM, first compound 10 µM
[19] = second compound 1 µM, first compound 0.0316 µM
[20] = second compound 1 µM, first compound 0.1 µM
[21] = second compound 1 µM, first compound 0.316 µM
[22] = second compound 1 µM, first compound 1 µM
[23] = second compound 1 µM, first compound 3.16 µM
[24] = second compound 1 µM, first compound 10 µM
[25] = second compound 3.16 µM, first compound 0.0316 µM
[26] = second compound 3.16 µM, first compound 0.1 µM
[27] = second compound 3.16 µM, first compound 0.316 µM
[28] = second compound 3.16 µM, first compound 1 µM
[29] = second compound 3.16 µM, first compound 3.16 µM
[30] = second compound 3.16 µM, first compound 10 µM
[31] = second compound 10 µM, first compound 0.0316 µM
[32] = second compound 10 µM, first compound 0.1 µM
[33] = second compound 10 µM, first compound 0.316 µM
[34] = second compound 10 µM, first compound 1 µM
[35] = second compound 10 µM, first compound 3.16 µM
[36] = second compound 10 µM, first compound 10 µM
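Note: spheroids exposed to agents for 7 days before readout.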
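Throughout, for viability, T/C: percent viability relative to DMSO vehicle control wells taken as 100%.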

COc1cc(C2c3cc4c(cc3C(OC3OC5COC(C)OC5C(O)C3O)C3COC(=O)C23)OCO4)cc(OC)c1O (centres undefined) + Cc1[nH]c2ccc(F)cc2c1-c1nc2c3cccnc3c3ncccc3c2[nH]1
IC50 (second compound 0.0316 µM): 669 nM
IC50 (second compound 0.1 µM): 1050 nM
IC50 (second compound 0.316 µM): 889 nM
IC50 (second compound 1 µM): 584 nM
IC50 (second compound 3.16 µM): 541 nM
IC50 (second compound 10 µM): 720 nM
viability, T/C [1]: 113%
viability, T/C [2]: 97.5%
viability, T/C [3]: 64.9%
viability, T/C [4]: 41.6%
viability, T/C [5]: 32.4%
viability, T/C [6]: 25.4%
viability, T/C [7]: 105%
viability, T/C [8]: 101%
viability, T/C [9]: 67.1%
viability, T/C [10]: 54.4%
viability, T/C [11]: 36.2%
viability, T/C [12]: 28.4%
viability, T/C [13]: 84.6%
viability, T/C [14]: 104%
viability, T/C [15]: 75.7%
viability, T/C [16]: 47%
viability, T/C [17]: 31.9%
viability, T/C [18]: 22.5%
viability, T/C [19]: 95.9%
viability, T/C [20]: 97.9%
viability, T/C [21]: 65.5%
viability, T/C [22]: 37.5%
viability, T/C [23]: 41.9%
viability, T/C [24]: 25.4%
viability, T/C [25]: 86.2%
viability, T/C [26]: 96.2%
viability, T/C [27]: 63.2%
viability, T/C [28]: 36.5%
viability, T/C [29]: 40.4%
viability, T/C [30]: 27.7%
viability, T/C [31]: 93.8%
viability, T/C [32]: 87.3%
viability, T/C [33]: 67.9%
viability, T/C [34]: 40.8%
viability, T/C [35]: 34.3%
viability, T/C [36]: 23%

Nc1ccn(C2OC(CO)C(O)C2(F)F)c(=O)n1 (centres undefined) + Cc1[nH]c2ccc(F)cc2c1-c1nc2c3cccnc3c3ncccc3c2[nH]1
IC50 (second compound 0.0316 µM): < 31.6 nM
IC50 (second compound 0.1 µM): 33.6 nM
IC50 (second compound 0.316 µM): < 31.6 nM
IC50 (second compound 1 µM): < 31.6 nM
IC50 (second compound 3.16 µM): < 31.6 nM
IC50 (second compound 10 µM): < 31.6 nM
viability, T/C [1]: 39%
viability, T/C [2]: 26.1%
viability, T/C [3]: 19.7%
viability, T/C [4]: 13.7%
viability, T/C [5]: 14%
viability, T/C [6]: 16.1%
viability, T/C [7]: 51.6%
viability, T/C [8]: 20.2%
viability, T/C [9]: 13.4%
viability, T/C [10]: 12.9%
viability, T/C [11]: 16.2%
viability, T/C [12]: 17.1%
viability, T/C [13]: 43.9%
viability, T/C [14]: 23.8%
viability, T/C [15]: 14.6%
viability, T/C [16]: 13.9%
viability, T/C [17]: 16%
viability, T/C [18]: 13.6%
viability, T/C [19]: 39.2%
viability, T/C [20]: 31.1%
viability, T/C [21]: 14.8%
viability, T/C [22]: 11.8%
viability, T/C [23]: 13.4%
viability, T/C [24]: 13.8%
viability, T/C [25]: 29.9%
viability, T/C [26]: 22%
viability, T/C [27]: 18.2%
viability, T/C [28]: 13.8%
viability, T/C [29]: 11%
viability, T/C [30]: 14.6%
viability, T/C [31]: 38.7%
viability, T/C [32]: 17.2%
viability, T/C [33]: 12.4%
viability, T/C [34]: 14%
viability, T/C [35]: 13.8%
viability, T/C [36]: 13.8%
